Structures can show the parent of a compound that is named as a salt. Where two headings read alike, the source gives them in different places.
What was measured:
D-1 receptor = assay: D-1 antagonist activity in adenylate cyclase assay (antagonism of dopamine-induced increase in cAMP); format: biochemical; conditions: 10 μM dopamine; goldfish retina or rat striatum homogenate
Procedure: The functional activity of a compound was determined by assaying, in vitro, its ability to either stimulate the enzyme adenylate cyclase to produce more cAMP (agonist activity) or to antagonize a dopamine-induced increase in cAMP levels. The protocol for the adenylate cyclase assays was described by K. J. Watling and J. E. Dowling in J Neurochemistry, 1981, 36: 599 and by J. W. Kebabian, et al. in Proc Natl Acad Sci, USA, 1972, 69: 2145. In order to determine agonist activity, cell-free tissue homogenates are incubated in an ionic buffer solution containing ATP and the compound being evaluated. The tissue was obtained from either goldfish retina or rat striatum.
The Ki values were calculated as described by Y. C.

dopamine D-2 receptor = target: T1, dopamine D-2 receptor (Rattus norvegicus, UniProt P61169); assay: D-2 receptor binding assay, competition with [^3 H]-spiperone in homogenized rat caudate; conditions: rat caudate homogenate
T1 construct: Homogenized rat caudate was the source of the D-2 receptors; from tissue; host or cells: rat caudate homogenate
T1 sequence (P61169 whole entry): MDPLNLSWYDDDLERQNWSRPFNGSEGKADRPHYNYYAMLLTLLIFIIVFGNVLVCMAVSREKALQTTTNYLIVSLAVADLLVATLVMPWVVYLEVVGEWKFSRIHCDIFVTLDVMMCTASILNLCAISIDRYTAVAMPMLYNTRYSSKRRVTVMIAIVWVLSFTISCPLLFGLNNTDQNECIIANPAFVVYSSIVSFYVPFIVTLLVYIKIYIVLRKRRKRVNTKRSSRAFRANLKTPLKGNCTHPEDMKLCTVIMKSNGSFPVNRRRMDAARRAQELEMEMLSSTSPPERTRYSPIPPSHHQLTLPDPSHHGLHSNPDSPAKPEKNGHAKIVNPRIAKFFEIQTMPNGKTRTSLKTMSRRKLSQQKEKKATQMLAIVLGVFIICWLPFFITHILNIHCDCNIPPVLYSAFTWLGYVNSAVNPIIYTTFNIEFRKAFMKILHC
Procedure: Homogenized rat caudate was the source of the D-2 receptors. […] A. Frey, T. E. Cote, C. […] The molar affinity of the compound for the receptor binding site was calculated by the same method used for the D-1 receptor assay, assuming a competitive interaction between the compound and the radiolabeled ligand.

dopamine D-1 receptor [1] = target: T2, dopamine D-1 receptor (Rattus norvegicus, UniProt P18901); assay: D-1 receptor binding assay, competition with [^125 I]SCH-23982 in homogenized rat caudate
T2 sequence (P18901 whole entry): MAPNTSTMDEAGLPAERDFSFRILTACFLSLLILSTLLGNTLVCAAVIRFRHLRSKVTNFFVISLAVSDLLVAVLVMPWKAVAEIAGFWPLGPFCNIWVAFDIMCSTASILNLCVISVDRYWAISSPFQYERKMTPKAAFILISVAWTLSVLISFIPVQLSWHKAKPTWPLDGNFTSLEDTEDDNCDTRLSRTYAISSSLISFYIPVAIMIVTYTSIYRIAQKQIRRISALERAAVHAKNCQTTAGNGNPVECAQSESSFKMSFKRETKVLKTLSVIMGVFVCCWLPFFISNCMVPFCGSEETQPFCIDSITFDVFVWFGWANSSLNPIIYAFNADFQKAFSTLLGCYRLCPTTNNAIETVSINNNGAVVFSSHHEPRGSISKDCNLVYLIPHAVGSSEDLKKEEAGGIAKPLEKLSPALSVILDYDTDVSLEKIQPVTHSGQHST
Excerpt: The compounds compete with the radiolabeled ligand for occupancy of the receptors and the molar potency of each compound was quantified.

dopamine D-1 receptor [2] = target: T2, dopamine D-1 receptor; assay: Rotation behavior: block of A-68930-induced rotation in rats with unilateral 6-hydroxydopamine lesion; format: in vivo; design: Homogenized rat caudate was incubated; from tissue; host or cells: rat caudate homogenate; conditions: subcutaneous, A-68930 1.0 μmol/kg s.c.
[3] = dose 10.0 μmol/kg, saline 1118 (Example 18), 1011 (Example 27)

COc1cc2c(cc1O)C1(CCCc3ccccc31)CNCC2 (centres unmarked) [Example 9, 8-Hydroxy-7-methoxy-1-(spiro-1'-1',2',3',4'-tetrahydronaphthalene)-2,3,4,5-tetrahydro-1H-3-benzazepine hydrochloride]
IC50 (D-1 receptor): 15.7 µM
Ki (D-1 receptor): 2.73 µM
Ki (dopamine D-2 receptor): > 100 µM
Ki (dopamine D-1 receptor [1]): 2.61 µM

COc1cc2c(cc1O)C1(CCCc3ccccc31)CN(C)CC2 (centres unmarked) [Example 10, 8-Hydroxy-7-methoxy-3-methyl-1-(spiro-1'-1',2',3',4'-tetrahydronaphthalene)-2,3,4,5-tetrahydro-1H-3-benzazepine hydrochloride]
IC50 (D-1 receptor): 0.32 µM
Ki (D-1 receptor): 0.06 µM
Ki (dopamine D-2 receptor): 562 µM
Ki (dopamine D-1 receptor [1]): 0.05 µM

CSc1cc2c(cc1O)C1(CCCc3ccccc31)CN(C)CC2 (centres unmarked) [Example 11, 8-Hydroxy-7-(methylthio)-3-methyl-1-(spiro-1'-1',2',3',4'-tetrahydronaphthalene)-2,3,4,5-tetrahydro-1H-3-benzazepine hydrochloride]
IC50 (D-1 receptor): 0.23 µM
Ki (D-1 receptor): 0.04 µM
Ki (dopamine D-2 receptor): 6.8 µM
Ki (dopamine D-1 receptor [1]): 0.11 µM

Oc1ccc2c(c1)C1(CCc3ccccc31)CNCC2 (centres unmarked) [Example 13, 8-Hydroxy-1-(spiro-1'-indan)-2,3,4,5-tetrahydro-1H-3-benzazepine hydrobromide]
Ki (dopamine D-2 receptor): > 100 µM
Ki (dopamine D-1 receptor [1]): 15.9 µM

CN1CCc2ccc(O)cc2C2(CCc3ccccc32)C1 (centres unmarked) [Example 14, 8-Hydroxy-3-methyl-1-(spiro-1'-indan)-2,3,4,5-tetrahydro-1H-3-benzazepine hydrobromide]
IC50 (D-1 receptor): 0.58 µM
Ki (D-1 receptor): 0.1 µM
Ki (dopamine D-2 receptor): > 100 µM
Ki (dopamine D-1 receptor [1]): 0.41 µM

Oc1cc2c(cc1O)C1(CCc3ccccc31)CNCC2 (centres unmarked) [Example 15, 7.8-Dihydroxy-1-(spiro-1'-indan)-2,3,4,5-tetrahydro-1H-3-benzazepine hydrobromide]
Ki (dopamine D-2 receptor): > 100 µM
Ki (dopamine D-1 receptor [1]; read-out: D-1 Ki, rat caudate homogenate, [^125 I]SCH-23982): 0.65 µM

CN1CCc2cc(O)c(O)cc2C2(CCc3ccccc32)C1 (centres unmarked) [Example 16, 7,8-Dihydroxy-3-methyl-1-(spiro-1'-indan)-2,3,4,5-tetrahydro-1H-3-benzazepine formate]
IC50 (D-1 receptor): 0.51 µM
Ki (D-1 receptor): 0.09 µM
Ki (dopamine D-2 receptor): 5.5 µM
Ki (dopamine D-1 receptor [1]): 0.33 µM

Oc1cc2c(cc1Br)CCNCC21CCc2ccccc21 (centres unmarked) [Example 17, 7-Bromo-8-hydroxy-1-(spiro-1'-indan)-2,3,4,5-tetrahydro-1H-2,3,4,5-tetrahydro-1H-3-benzazepine hydrochloride]
IC50 (D-1 receptor): 0.83 µM
Ki (D-1 receptor): 0.14 µM
Ki (dopamine D-2 receptor): 18 µM
Ki (dopamine D-1 receptor [1]): 0.31 µM

CN1CCc2cc(Br)c(O)cc2C2(CCc3ccccc32)C1 (centres unmarked) [Example 18, 7-Bromo-8-hydroxy-3-methyl-1-(spiro-1'-indan)-2,3,4,5-tetrahydro-1H-3-benzazepine hydrochloride]
Number of Rotations/2 h (dopamine D-1 receptor [2]; dose 3.2 μmol/kg, saline group 1118): 491 Rotations/2 h
Number of Rotations/2 h (dopamine D-1 receptor [2]; [3]): 412 Rotations/2 h
Number of Rotations/2 h (dopamine D-1 receptor [2]; dose 32.0 μmol/kg, saline group 1118): 154 Rotations/2 h
IC50 (D-1 receptor): 0.05 µM
Ki (D-1 receptor): 0.01 µM
Ki (dopamine D-2 receptor): 5.9 µM
Ki (dopamine D-1 receptor [1]): 0.01 µM

CN1CCc2cc([N+](=O)[O-])c(O)cc2C2(CCc3ccccc32)C1 (centres unmarked) [Example 21, 8-Hydroxy-7-nitro-3-methyl-1-(spiro-1'-indan)-2,3,4,5-tetrahydro-1H-3-benzazepine hydrochloride]
IC50 (D-1 receptor): 1.38 µM
Ki (D-1 receptor): 0.24 µM
Ki (dopamine D-2 receptor): 39.2 µM
Ki (dopamine D-1 receptor [1]): 1.32 µM

COc1cc2c(cc1O)C1(CCc3ccccc31)CNCC2 (centres unmarked) [Example 24, 8-Hydroxy-7-methoxy-1-(spiro-1'-indan)-2,3,4,5-tetrahydro-1H-3-benzazepine hydrochloride]
IC50 (D-1 receptor): 0.53 µM
Ki (D-1 receptor): 0.13 µM
Ki (dopamine D-2 receptor): > 100 µM
Ki (dopamine D-1 receptor [1]): 0.81 µM

COc1cc2c(cc1O)C1(CCc3ccccc31)CN(C)CC2 (centres unmarked) [Example 25, 8-Hydroxy-7-methoxy-3-methyl-1-(spiro-1'-indan)-2,3,4,5-tetrahydro-1H-3-benzazepine hydrochloride]
IC50 (D-1 receptor): 0.13 µM
Ki (D-1 receptor): 0.02 µM
Ki (dopamine D-2 receptor): 9.5 µM
Ki (dopamine D-1 receptor [1]): 0.16 µM

Oc1cc2c(cc1O)C1(CCCc3ccccc31)CNCC2 (centres unmarked) [Example 26, 7.8-Dihydroxy-1-(spiro-1'-1',2', 3',4'-tetrahydronapthalene)-2,3,4,5-tetrahydro-1H-3-benzazepine hydrobromide]
Ki (dopamine D-2 receptor): > 100 µM
Ki (dopamine D-1 receptor [1]): 16.2 µM

CN1CCc2cc(O)c(O)cc2C2(CCCc3ccccc32)C1 (centres unmarked) [Example 27, 7,8-Dihydroxy-3-methyl-1-(spiro-1'-1',2',3',4'-tetrahydronapthalene)-2,3,4,5-tetrahydro-1H-3-benzazepine hydrobromide]
Number of Rotations/2 h (dopamine D-1 receptor [2]; dose 3.0 μmol/kg, saline group 1011): 913 Rotations/2 h
Number of Rotations/2 h (dopamine D-1 receptor [2]; [3]): 652 Rotations/2 h
Number of Rotations/2 h (dopamine D-1 receptor [2]; dose 30.0 μmol/kg, saline group 1011): 119 Rotations/2 h
IC50 (D-1 receptor): 2.29 µM
Ki (D-1 receptor): 0.4 µM
Ki (dopamine D-2 receptor): > 100 µM
Ki (dopamine D-1 receptor [1]): 0.84 µM

Oc1ccc2c(c1)C1(CCCc3ccccc31)CNCC2 (centres unmarked) [Example 28, 8-Hydroxy-1-(spiro-1'-1',2',3',4'-tetrahydronapthalene)-2,3,4,5-tetrahydro-1H-3-benzazepine hydrochloride]
Ki (dopamine D-2 receptor): 136 µM
Ki (dopamine D-1 receptor [1]): 23 µM

CN1CCc2ccc(O)cc2C2(CCCc3ccccc32)C1 (centres unmarked) [Example 29, 8-Hydroxy-3-methyl-1-(spiro-1'-1',2',3',4'-tetrahydronapthalene)-2,3,4,5-tetrahydro-1H-3-benzazepine hydrochloride]
IC50 (D-1 receptor): 4.24 µM
Ki (D-1 receptor): 0.74 µM
Ki (dopamine D-2 receptor): 112 µM
Ki (dopamine D-1 receptor [1]): 0.44 µM

Oc1cc2c(cc1Br)CCNCC21CCCc2ccccc21 (centres unmarked) [Example 30, 7-Bromo-8-hydroxy-1-(spiro-1'-1',2',3',4'-tetrahydronapthalene)-2,3,4,5-tetrahydro-1H-3-benzazepine hydrochloride]
IC50 (D-1 receptor): 0.92 µM
Ki (D-1 receptor): 0.16 µM
Ki (dopamine D-2 receptor): 14.6 µM
Ki (dopamine D-1 receptor [1]): 0.68 µM

CN1CCc2cc(Br)c(O)cc2C2(CCCc3ccccc32)C1 (centres unmarked) [Example 31, 7-Bromo-8-hydroxy-3-methyl-1-(spiro-1'-1',2',3',4'-tetrahydronapthalene)-2,3,4,5-tetrahydro-1H-3-benzazepine hydrochloride]
IC50 (D-1 receptor): 0.14 µM
Ki (D-1 receptor): 0.02 µM
Ki (dopamine D-2 receptor): 10.1 µM
Ki (dopamine D-1 receptor [1]): 0.03 µM

COc1cc2c(cc1O)C1(CCCCc3ccccc31)CN(C)CC2 (centres unmarked) [Example 32, 8-Hydroxy-7-methoxy-3-methyl-1-(spiro-5'-6',7',8',9'-tetrahydro-5'H-benzocycloheptene)-2,3,4,5-tetrahydro-1H-3-benzazepine hydrochloride]
IC50 (D-1 receptor): 3.24 µM
Ki (D-1 receptor): 0.56 µM
Ki (dopamine D-2 receptor): 112 µM
Ki (dopamine D-1 receptor [1]): 1.5 µM

CN1CCc2ccc(O)cc2C2(CCCCc3ccccc32)C1 (centres unmarked) [Example 33, 8-Hydroxy-3-methyl-1-(spiro-5'-6',7',8',9'-tetrahydro-5'H-benzocycloheptene)-2,3,4,5-tetrahydro-1H-3-benzazepine hydrochloride]
Ki (dopamine D-2 receptor): 8.8 µM
Ki (dopamine D-1 receptor [1]): 3.41 µM

CN1CCc2cc(O)c(O)cc2C2(CCCCc3ccccc32)C1 (centres unmarked) [Example 34, 7.8-Dihydroxy-3-methyl-1-(spiro-5'-6',7',8',9'-tetrahydro-5'H-benzocycloheptene)-2,3,4,5-tetrahydro-1H-3-benzazepine hydrobromide]
Ki (dopamine D-2 receptor): 4.2 µM
Ki (dopamine D-1 receptor [1]): 8 µM

CN1CCc2cc(Br)c(O)cc2C2(CCCCc3ccccc32)C1 (centres unmarked) [Example 35, 7-Bromo-8-hydroxy-3-methyl-1-(spiro-5'-6',7',8',9'-tetrahydro-5'H-benzocycloheptene)-2,3,4,5-tetrahydro-1H-3-benzazepine hydrochloride]
Ki (dopamine D-2 receptor): 7.5 µM
Ki (dopamine D-1 receptor [1]): 0.94 µM

COc1cc2c(cc1O)C1(CCOc3ccccc31)CN(C)CC2 (centres unmarked) [Example 135, 8-Hydroxy-7-methoxy-3-methyl-1-(spiro-4'-(3',4'-dihydro-2'H-1'-benzopyran))-2,3,4,5-tetrahydro-1H-3-benzazepine hydrochloride]
IC50 (D-1 receptor): 0.96 µM
Ki (D-1 receptor): 0.17 µM
Ki (dopamine D-2 receptor): 0.66 µM
Ki (dopamine D-1 receptor [1]): 0.16 µM

CN1CCc2ccc(O)cc2C2(CCOc3ccccc32)C1 (centres unmarked) [Example 136, 8-Hydroxy-3-methyl-1-(spiro-4'-(3',4'-dihydro-2'-H-1'-benzopyran))-2,3,4,5-tetrahydro-1H-3-benzazepine hydrochloride]
IC50 (D-1 receptor): 4.34 µM
Ki (D-1 receptor): 0.75 µM
Ki (dopamine D-2 receptor): > 100 µM
Ki (dopamine D-1 receptor [1]): 1.67 µM

CN1CCc2cc(Br)c(O)cc2C2(CCOc3ccccc32)C1 (centres unmarked) [Example 137, 7-Bromo-8-hydroxy-3-methyl-1-(spiro-4'-(3',4'-dihydro-2'H-1'-benzopyran))-2,3,4,5-tetrahydro-1H-3-benzazepine hydrochloride]
IC50 (D-1 receptor): 0.14 µM
Ki (D-1 receptor): 0.03 µM
Ki (dopamine D-2 receptor): > 100 µM
Ki (dopamine D-1 receptor [1]): 0.02 µM

From patent US5158948A (Abbott Laboratories, priority 1991, dated 1992)
